Measurements reported in ChEMBL document CHEMBL1201862, “PubChem BioAssay data set” (2004).
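Five concentrations, 48 hours, 96-well plates. GI50: concentration for 50% inhibition of growth.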 Active and inactive are the calls of the source. Rule as the data show it: active = GI50 up to about 1.1 µM and inactive = higher.

Legend:
Test in all cases: DTP human tumour cell line panel, 48 h
[1] = system: KM-20L2
[2] = system: SNB-78
[3] = system: DMS-114
[4] = system: M19-MEL
[5] = system: DMS-273
[6] = system: DLD-1
[7] = system: XF498
[8] = system: HOP-18
[9] = system: RXF 631

Measured: GI50

Cc1ccc(S(=O)(=O)NC(=O)NC23CC4CC(CC(F)(C4)C2)C3)cc1
inactive: [1] > 100 µM | [2] > 100 µM | [3] > 100 µM | [4] > 100 µM | [5] > 100 µM | [6] > 100 µM | [7] > 100 µM

O=C1CCCCC1S(=O)(=O)c1ccccc1 (stereo unspecified)
inactive: [8] > 100 µM | [1] > 100 µM | [2] > 100 µM | [3] > 100 µM | [4] > 100 µM | [5] > 100 µM | [6] > 100 µM | [7] > 100 µM

CCCCCCCCCCCCCCCCOCC(CN(C)CCN(C)C)OCCCCCCCCCCCCCCCC (stereo unspecified)
inactive: [8] > 100 µM | [1] > 100 µM | [2] > 100 µM | [3] > 100 µM | [9] > 100 µM | [4] > 100 µM | [5] > 100 µM | [6] > 100 µM

CCCCCCCCCCSC(=O)NC
inactive: [8] 63 µM | [1] > 10 µM | [4] 38.1 µM | [5] 29.2 µM | [6] 36.9 µM | [7] 21.3 µM

O=C(c1ccc(Cl)cc1)c1ccc(OCCCOc2ccc(C(=O)c3ccc(Cl)cc3)cc2Cl)c(Cl)c1
inactive: [1] > 100 µM | [2] > 100 µM | [3] > 100 µM | [9] > 100 µM | [4] > 100 µM | [5] > 100 µM | [6] > 100 µM | [7] > 100 µM

C=C1C(=O)OC2/C=C(\C)C3OC3/C=C(/C(=O)OC)C(OC(C)=O)C(OC(=O)C(C)(O)C(C)OC(C)=O)C12 (stereo unspecified)
inactive: [2] 2.53 µM | [3] 1.15 µM | [9] 2.55 µM | [4] 2.39 µM | [5] 1.57 µM | [6] 2.39 µM | [7] 1.96 µM

NC(Cc1ccc2oc3cc(=O)c4ccccc4c-3nc2c1)C(=O)O (stereo unspecified)
inactive: [8] 25.8 µM | [1] 39.2 µM | [2] > 100 µM | [3] 13.9 µM | [5] 22.4 µM | [6] 34.8 µM

C/C(=N\N=C(N)N)c1sc(-c2nc(C)c(/C(C)=N/N=C(N)N)s2)nc1C
inactive: [8] > 100 µM | [1] > 100 µM | [2] > 100 µM | [4] > 100 µM | [5] > 100 µM | [6] > 51.2 µM | [7] > 100 µM

C=C(C)C1Cc2c(cc(OC)c3c(=O)c4ccccc4n(C)c23)O1 (stereo unspecified)
inactive: [8] > 100 µM | [1] > 100 µM | [2] > 100 µM | [3] 91.8 µM | [4] 63.7 µM | [5] 91.6 µM | [6] > 100 µM | [7] > 100 µM

C/C(CN1C(=O)c2ccccc2C1=O)=N\NS(=O)(=O)c1ccc(Br)cc1
inactive: [8] > 100 µM | [1] > 100 µM | [2] > 100 µM | [3] 10.9 µM | [4] > 100 µM | [5] > 100 µM | [6] > 100 µM

CSc1n[n+]2c(s1)SCCC2
inactive: [8] 42.7 µM | [2] > 100 µM | [3] 62.5 µM | [9] > 100 µM | [4] > 100 µM | [5] > 100 µM | [6] > 100 µM | [7] > 100 µM

O[C@]12c3ccccc3C1CCCC2N1CCOCC1 (stereo partly specified)
inactive: [8] > 100 µM | [1] > 100 µM | [2] > 100 µM | [3] > 100 µM | [4] > 100 µM | [5] > 100 µM | [7] > 100 µM

COc1cc(CC2c3cc(OC)c(OC)cc3CCN2C)ccc1O (stereo unspecified)
inactive: [8] > 100 µM | [1] > 100 µM | [2] > 100 µM | [6] > 100 µM | [7] > 100 µM

O=C(/C=C/c1ccc(O)cc1)c1ccc(O)cc1 [4,4'-DIHYDROXYCHALCONE]
inactive: [8] 35.2 µM | [1] 20.3 µM | [2] 45.2 µM | [3] 18.9 µM | [4] 21.7 µM | [5] 16.5 µM | [6] 18 µM | [7] 19.3 µM

COc1cc2c(cc1OC)[C@H]1C(COC(=O)Nc3ccccc3)CN1CC2 (stereo partly specified)
inactive: [8] > 100 µM | [4] > 100 µM | [5] > 100 µM | [6] > 100 µM

COC(=O)C(C(=O)C(=O)Nc1ccc(OC)cc1[N+](=O)[O-])c1nc2cc(C)c(C)cc2nc1O (stereo unspecified)
inactive: [8] > 100 µM | [1] > 100 µM | [2] > 100 µM | [3] > 100 µM | [9] > 100 µM | [4] > 100 µM | [6] > 100 µM
